# Test results published in patent US12605384B2, “Uses” (INTRA-CELLULAR THERAPIES, INC., priority 2018, dated 2026).
# Where a name gives a salt, the structure may show the parent alone.
# How the values were obtained:
# [1] = system: normal adult rabbit myocytes; assay: Contraction and calcium transients in isolated rabbit cardiomyocytes; assay type: cell-based; set-up: effect on contraction and calcium transients: dose or concentration left out as unconfirmed
# Description: To test whether PDE1 inhibition directly impacts cardiomyocyte contraction and calcium transients, studies are carried out on normal adult rabbit myocytes. […] As PDE1 requires sufficient cAMP and Ca^2+ to be impactful, a dose response was performed to the adenylate cyclase activator, forskolin (FSK) to determine the lowest dose producing a modest but significant inotropic effect (1 μM).
# Rabbit myocytes were isolated to determine the effect of PDE1 inhibition on cardiomyocyte contraction and whole cell Ca2+ transients, and to compare the results to those with a PDE3 inhibitor, cilostamide (Cil, 1 μM).
# myocyte cAMP = assay: Whole cell cAMP in rabbit myocytes; assay type: cell-based; conditions: for whole cell cAMP: alone or combined with Iso; for cAMP: added to Fsk
# Text: This is consistent with prior studies showing locally generated cAMP from β-AR and its modulation by PDE3 occur in local subcellular domains that are not easily detected in whole cell lysates32.
# [2] = system: normal and failing canine hearts; assay: Conscious pressure-volume hemodynamic analysis in dogs; assay type: in vivo, dog
# Description: (§1) Dogs are studied in the conscious state before and after inducing dilated cardiomyopathy by tachypacing for two weeks at 200 bpm.
# (§2) The study employs two doses, 0.01 and 0.1 mg/kg, the latter administered 30 minutes after the first.
# Load insensitive indexes of contractility (dP/dtmax/IP and PRSW) increased.
# plasma cAMP and cGMP = assay: Plasma cAMP and cGMP by ELISA in dogs; assay type: in vivo, dog; conditions: for plasma cGMP: normal and HF models, all conditions
# Description: Blood plasma is obtained from these animals, and cAMP and cGMP are assayed by ELISA.
# [3] = Plasma Compound 1 levels in dogs (LC/MS-MS); assay type: in vivo, dog; conditions: normal dogs, 0.1 mg/kg i.v.
# Description: as §1, §2
# Intravenous blood is placed in K2EDTA tubes, centrifuged at 2,000 g for 15 min, plasma decanted, and stored frozen. Compound 1 levels are assessed by a rapid, sensitive liquid chromatography-tandem mass spectrometric (LC/MS-MS) method.
# The mobile phase consists of a gradient of 60-100% methanol over 4.5 minutes in 5 mM ammonium bicarbonate with 0.2% NH3H2O, pumped at a flow rate of 0.8 mL/min. Analysis time is 4.5 min and both the analyte and internal standard eluted around 2.0 min. Multiple reactions monitoring (MRM) mode is used to detect Compound 1. MS is operated in the positive ion detection mode. […] Calibration curves are linear from 0.02-500 ng/mL in dog plasma sample matrices. The lower limit of quantification (LLOQ) for plasma was 0.02 ng/mL.
# [4] = system: New Zealand White rabbits; assay: Pressure-volume hemodynamics in anesthetized rabbits; assay type: in vivo, rabbit; conditions: for hemodynamic effects: atrially paced
# Text: Cyclic AMP is generated largely by transmembrane adenylyl cyclases activated via stimulatory G protein (Gs), with β-adrenergic, adenosine (primarily […]), glucagon, prostanoids, histamine, and serotonin all coupling to Gs in cardiomyocytes. The present studies focus on beta-adrenergic and adenosine receptors, and for the latter, concentrated on the A2B receptor, which has been reported to directly stimulate cAMP-dependent contractility. […] Relaxation changes are also modest with LV preload (end-diastolic and volume) unaltered; however, the combined vasodilator-inotropic response doubled ventricular/arterial coupling ratio, Ees/Ea.
# New Zealand White rabbits (male, 2-3 kg) are sedated with 35 mg/kg ketamine and 5 mg/kg xylazine, intubated and ventilated (Model 683, Harvard Apparatus, Holliston, MA), with anesthesia maintained with isoflurane inhalation (1-2%). A pressure-volume catheter (SPR-894, Millar, Inc., Houston, TX) is inserted via the common carotid artery and advanced to the LV apex, and a 2-Fr pacing catheter is positioned in the right atrium via the right jugular vein to provide atrial pacing. […] The parallel conductance is determined by the hypertonic saline injection method. Rabbits are infused with 6% hetastarch in saline during the procedure to stabilize arterial pressure.
# [5] = system: patients with stable chronic systolic HF; assay: Phase Ib/IIa single ascending dose study in human heart failure; assay type: in vivo
# Description: (§3) A further group was administered placebo.
# (§4) Hemodynamic monitoring began 30-60 minutes prior to the pre-dose echocardiogram through to 5-6 hours post-dose.
# Supine and orthostatic blood pressure and heart rate were recorded pre-dose, as well as 60 and 40 minutes post-dose. Continuous electrocardiographic monitoring starting up to 30-60 minutes prior to the pre-dose echocardiogram through to 5-6 hours post-dose including measurement of ectopic arrhythmias pre- and post-dose.
# [6] = Plasma pharmacokinetics in heart failure patients; assay type: in vivo, human; conditions: 10, 30, 90 mg
# Description: as §3, §4
# [7] = Compound 1 added after FSK 1 μM
# [8] = continuous ECG monitoring to 5-6 hours post-dose
compound,measurement,setting,value
"CC(C)NCC(O)c1ccc(O)c(O)c1 (stereo not drawn) [isoproterenol, reference compound]",sarcomere shortening and peak Ca2+,[1]; isoproterenol 50 nM,increases both sarcomere shortening and peak Ca^2+
same,"sarcomere shortening, peak-Ca2+ and relaxation times",[1]; non-saturating dose of isoproterenol,"increased sarcomere shortening and peak-Ca^2+, and quickened relaxation times"
same,whole cell cAMP,myocyte cAMP,did not measurably increase whole cell cAMP
"CC(CCc1ccc(O)cc1)NCCc1ccc(O)c(O)c1 (stereo not drawn) [dobutamine, reference compound]",PV loop area (stroke work) and contractility,[2]; dobutamine 10 μg/kg/min alone,increased PV loop area
same,plasma cGMP,plasma cAMP and cGMP,remains unchanged
"CN(C(=O)CCCOc1ccc2[nH]c(=O)ccc2c1)C1CCCCC1 [cilostamide, reference compound]","percent sarcomere shortening, peak-Ca2+ transients and decay kinetics",[1]; Cil 1 μM alone,rose and their decay kinetics accelerated
same,Ca2+ transient decay,[1]; added to Fsk 1 μM,faster decay of the Ca2+ transient
same,peak Ca2+ transient,[1]; added to Fsk 1 μM,increase
same,sarcomere shortening,[1]; added to Fsk 1 μM,increase in sarcomere shortening
same,peak-Ca2+,[1]; added to Iso,remained elevated over baseline
same,sarcomere shortening,[1]; added to Iso,further increased sarcomere shortening
same,cAMP,myocyte cAMP,unaltered by addition of Cil
same,whole cell cAMP,myocyte cAMP,did not measurably increase whole cell cAMP
"CN1C(=O)c2c(nn(Cc3ccc(-c4cccc(F)n4)cc3)c2Nc2ccccc2)N2C1=N[C@@H]1CCC[C@@H]12 [Compound 1, (6aR,9aS)-2-(4-(6-fluoropyridin-2-yl)benzyl)-5-methyl-3-(phenyl-amino)-5,6a,7,8,9,9a-hexahydrocyclopenta-[4,5]imidazo[1,2-a]pyrazolo[4,3-e]pyrimidin-4-(2H)-one monophosphate]",time of peak plasma concentration,[3],within minutes
same,hemodynamic responses,[2]; 0.1 mg/kg i.v.,"positive chronotropic, inotropic, lusitropic, and vasodilator responses"
same,"inotropy, lusitropy and vasodilation","[2]; i.v., heart failure dogs",remained significantly improved
same,plasma cAMP,"plasma cAMP and cGMP; HF dogs, combination of dobutamine and Compound 1",significantly higher
same,plasma cGMP,plasma cAMP and cGMP,remains unchanged
same,LV preload,"[4]; 0.1 mg/kg i.v. bolus, alone",unaltered
same,cardiac output,"[4]; 0.1 mg/kg i.v. bolus, alone",increases cardiac output
same,heart rate,"[4]; 0.1 mg/kg i.v. bolus, alone",modestly elevated heart rate
same,relaxation changes,"[4]; 0.1 mg/kg i.v. bolus, alone",modest
same,systemic resistance,"[4]; 0.1 mg/kg i.v. bolus, alone",lowered systemic resistance
same,systolic pressure,"[4]; 0.1 mg/kg i.v. bolus, alone",no change in systolic pressure
same,contractile and vasodilation effects,[4]; after esmolol,remain intact
same,heart rate,[4]; after esmolol,no longer increases HR
same,hemodynamic responses,[4]; atrially paced at ~20% above sinus node rate,nearly identical responses
same,hemodynamic effects,[4]; with MRS-1754,fully blocked by MRS-1754
same,hemodynamic effects,[4]; with esmolol,unaltered by esmolol
same,"cardiovascular responses to Compound 1 (heart rate, contractility, vasodilation)",[4]; with A2BR blocker MRS-1754,eliminated all of the cardiovascular responses
same,"percent sarcomere shortening, peak-Ca2+ transients and decay kinetics",[1]; Compound 1 1 μM alone,not observed
same,rise in sarcomere shortening versus time-control,[1]; Compound 1+FSK vs FSK for identical duration,exceeds that with FSK alone
same,peak calcium transient,[1]; [7],remains unaltered
same,shortening and relaxation/calcium decay rates,[1]; [7],significantly increases shortening and relaxation/calcium decay rates
same,effect on contraction and calcium transients,[1]; Compound 1 alone,no effect
same,Ca2+ transient decay,[1]; added to Fsk 1 μM,enhanced the Ca2+ decay rate similarly to Cil
same,peak Ca2+ transient,[1]; added to Fsk 1 μM,no corresponding increase in peak Ca2+ transient
same,sarcomere shortening,[1]; added to Fsk 1 μM,rose as with Cil
same,peak-Ca2+,[1]; added to Iso,no longer significantly different from pre-Iso baseline
same,sarcomere shortening,[1]; added to Iso,did not change further
same,cAMP change as share of the maximal change with IBMX added to Fsk,myocyte cAMP; Compound 1 added to Fsk,about half
same,cAMP,myocyte cAMP,substantially increased by adding Compound 1
same,systemic vascular resistance,[5]; 30 mg,greatest decrease
same,effective arterial elastance (Ea),[5]; 30 mg and 90 mg,decreased
same,systemic vascular resistance,"[5]; all cohorts (10, 30, 90 mg single oral dose)",significantly decrease systemic vascular resistance
same,mean arterial blood pressure,"[5]; all dose amounts, versus placebo",decrease mean arterial blood pressure versus placebo
same,atrial fibrillation or atrial flutter,[5]; [8],none of the patients developed atrial fibrillation or atrial flutter
same,sustained supraventricular or ventricular tachycardia,[5]; [8],no patient developed sustained supraventricular or ventricular tachycardia
same,ventricular proarrhythmia,[5]; [8],no evidence of ventricular proarrhythmia
same,safety and tolerability,[5]; patients with systolic heart failure (HFrEF),safe and well tolerated
same,blood pressures and heart rates,[5]; throughout the testing period,remained stable
same,area under curve,[6],increasing with dose escalation
"CCCn1c(=O)c2[nH]c(-c3ccc(OCC(=O)Nc4ccc(C#N)cc4)cc3)nc2n(CCC)c1=O [MRS-1754, reference compound]",impact of inhibitor pre-treatment alone on cardiovascular hemodynamics,[4],Neither inhibitor pre-treatment alone has a significant impact
"CC(C)Cn1c(=O)n(C)c(=O)c2[nH]cnc21 [IBMX, reference compound]",peak calcium transients,[1]; IBMX 100 μM,did not alter peak calcium transients
same,shortening and contraction/calcium decay rates,[1]; IBMX 100 μM,increased shortening and contraction/calcium decay rates
"COC(=O)CCc1ccc(OCC(O)CNC(C)C)cc1 (stereo not drawn) [esmolol, esmolol HCl, reference compound]",cardiac responses to 10 μg/kg/min dobutamine,[4]; esmolol dose as used,effectively blocked cardiac responses
same,impact of inhibitor pre-treatment alone on cardiovascular hemodynamics,[4],Neither inhibitor pre-treatment alone has a significant impact
